These results are taken from patent EP0839146B1, “PIPERAZINE DERIVATIVES AND THEIR USE AS 5-HT1A ANTAGONISTS” (AMERICAN HOME PRODUCTS CORPORATION, priority 1995, dated 1997).

Each structure is given as a SMILES string.

Assay [1] concerns the target α1 receptors. In words: α1 binding affinity (procedure of Marrow et al). The procedure:
The compounds were tested for α1 binding affinity (column 3) by the procedure of A.L. Marrow et al, Mol. Pharmacol., 1986, 29, 321.

The target in assay [2] is T1, 5-HT1A receptor (Rattus norvegicus, UniProt P19327).
T1 sequence (P19327 1-422): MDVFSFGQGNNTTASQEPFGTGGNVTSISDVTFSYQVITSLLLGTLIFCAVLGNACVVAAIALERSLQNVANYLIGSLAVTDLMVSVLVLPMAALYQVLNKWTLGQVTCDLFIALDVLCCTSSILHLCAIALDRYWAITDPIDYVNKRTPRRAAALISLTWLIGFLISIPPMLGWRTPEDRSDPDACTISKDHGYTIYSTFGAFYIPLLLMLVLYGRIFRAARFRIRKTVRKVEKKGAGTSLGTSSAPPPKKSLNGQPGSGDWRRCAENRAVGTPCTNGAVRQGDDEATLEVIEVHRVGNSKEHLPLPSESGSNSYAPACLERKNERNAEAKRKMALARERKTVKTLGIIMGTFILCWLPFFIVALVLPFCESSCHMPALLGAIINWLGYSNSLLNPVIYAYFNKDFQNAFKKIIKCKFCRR
Nature of the assay: 5-HT1A binding affinity in rat hippocampal membrane homogenate (method of Alexander and Wood). More on the design: in rat hippocampal membrane homogenate; from tissue; host or cells: rat hippocampus (membrane homogenate). The procedure: The compounds were tested for 5-HT1A binding affinity (column 2) in rat hippocampal membrane homogenate by the method of B.S. Alexander and M.D. Wood, J. Pharm. Pharmacol., 1988, 40, 888-891.

Assay [3] addresses T1, 5-HT1A receptor. In words: 5-HT1A receptor antagonist activity: antagonism of the 8-OH-DPAT syndrome in rats after oral pretreatment. The assay is classed as in vivo. Details: from tissue; host or cells: whole animal (rat), in vivo. As to the method: 5-HT1A receptor antagonist activity (columns 5 and 6) is assessed by the ability of the selective 5-HT1A receptor agonist, 8-OH-DPAT, to induce 'the 8-OH-DPAT syndrome' in rats characterised by extended flat body posture, forepaw treading and hyperlocomotion. The 8-OH-DPAT syndrome is scored as present (definite syndrome response) or absent (equivocal or no syndrome response) during the period 0-5 min following intravenous (i.v.) administration of the test agonist via a lateral tail vein.
A range of doses, on a logarithmic scale and encompassing the expected ED50, were chosen for the test agonist following preliminary evaluation. […]
Test antagonists were administered orally (p.o.) 60 min, before i.v. administration of 8-OH-DPAT. ED50 values for 8-OH-DPAT were determined for the different pretreatment groups using the sequential up/down procedure as described above.
The response to the selective 5-HT1A receptor agonist, 8-OH-DPAT, is represented as an ED50 value for induction of the 8-OH-DPAT syndrome, which is determined using the sequential up/down analysis following intravenous administration. 5-HT1A antagonist activity is determined by the ability of the test compound to antagonise the response to 8-OH-DPAT, i.e. to increase the ED50 for induction of the 8-OH-DPAT syndrome compared with vehicle pretreatment. […]

As a reminder, the IC50 is the concentration that inhibits the measured activity by half. For `C[C@H](CN(C(=O)C1CCCCC1)c1ccccn1)N1CCN(c2cccc3c2OCCO3)CC1` [Example A1], the results for the IC50 in assay [1] and in assay [2] (rat hippocampal membrane homogenate) were 625 nM and 4.3 nM, respectively. In addition, in assay [2] (binding selectivity, ratio of 5-HT1A binding to α1-binding), the “Ratio 5HT1A/α1” value came to 145. Moreover, the “5-HT1A-antagonist Ratio (ED50 antagonist @ 3mg/kg po)/ED50 vehicle” value in assay [3] (ED50 of i.v. 8-OH-DPAT after test compound 3 mg/kg p.o. divided by ED50 after vehicle) is given as 20. Also, the “5-HT1A-antagonist activity MED” value in assay [3] (antagonist p.o. 60 min before i.v. 8-OH-DPAT, lowest dose at which ED50 confidence limits of antagonist and vehicle groups do not overlap) came out at 1 mg/kg po.
